Results taken from patent publication US12478632B2, “Method for ameliorating progression of renal fibrosis and treating renal fibrosis by 5-(2′,4′-difluorophenyl)-salicylanilide derivatives” (National Defense Medical University, priority 2021, dated 2025).

Key:
[1] = test system: UUO mice; test: unilateral ureteral obstruction (UUO) model mimicking renal tubulointerstitial lesions; type: in vivo; details: days 7 and 14
Source text: To establish Unilateral ureteral obstruction (UUO) model for mimicking renal tubulointerstitial lesions (TILs), the mice (8-12 weeks of age) were anesthetized followed by a lateral incision on the back of the mouse. After the left ureter was exposed, it was tied with a silk suture at two points and permanently ligated. Sham-operated mice, which underwent an identical procedure but without ureteric ligation, were used as sham control. After 7 or 14 days, the mice were euthanized, and then, renal tissues, pelvis urine, and renal draining lymph nodes were collected.
LCC18 (10 mg/kg body weight) was administered intraperitoneally 1 day before (preventive group) or 3 days after (therapeutic group) the induction of UUO, or 1 day after the ligation of renal vessels in this model. Diseased mice that received only polyethylene glycol 400 (PEG 400) (Sigma-Aldrich, St. Louis, MO, USA) daily via intraperitoneal injections were used as the vehicle control group. All animal experiments were performed with the approval of the Institutional Animal Care and Use Committee of the National Defense Medical Center, Taiwan, in compliance with the NIH Guide for the Care and Use of Laboratory Animals.
Renal tissues were fixed in 10% buffered formalin, embedded in paraffin, and 3-μm thick sections were cut for haematoxylin and eosin (H&E) staining. Fifty glomeruli were examined in at least two renal tissue sections per slide by light microscopy at ×400 magnification. The percentage of glomeruli showing proliferation, or glomerular sclerosis was determined.
The quantitative analysis of the data obtained from hematoxylin and eosin (H&E) and Masson's trichrome staining of renal histopathological evaluation was used by quantitative imaging software (Pax-it; Paxcam, Villa Park, IL).
Further, in another embodiment, formalin-fixed and paraffin-embedded renal sections were incubated with primary antibodies followed by biotinylated secondary antibodies and avidin-biotin-peroxidase complex (Dako) for IHC staining.

[2] = test system: bone marrow-derived DCs (BMDCs); test: DC activation (CD80 in CD11c+ cells) by flow cytometry in IgA ICs-stimulated BMDCs; type: cell-based; details: LCC18-treated IgA ICs-stimulated BMDCs; FIG. 3A
Experimental: (§1) FIG. 3A-3H depict that LCC18 inhibits activation of DCs and systemic immune responses in IgAN model. The fluorescence intensity of CD80^+ in gated CD11c^+ cells (within gated CD11c^+ cells, grey-filled area created by staining with an isotype-matched control antibody) determined by flow cytometry (FIG. 3A). T-cell proliferation measured by [^3H]thymidine (FIG. 3B). BMDCs were incubated for 24 h with IgA ICs and co-cultured with OT-II CD′ T cells pulsed with OVA peptide. P-IgAN mouse model (FIG. 3C, FIG. 3D, FIG. 3E). S-IgAN mouse model (FIG. 3F, FIG. 3G, FIG. 3H). CD3 T-cell proliferation in splenocytes by [^3H]thymidine uptake (FIG. 3C and FIG. 3F). Numbers of CD4^+CD44^hiCD62L^lo (FIG. 3D and FIG. 3G) and CD8^+CD44^hiCD62L^lo-hi (FIG. 3E and FIG. 3H) memory T cells among splenic cells assessed by flow cytometry. WT, wild type. #Not detectable. BMDCs, bone marrow-derived dendritic cells. Bars show the mean±SD of 7 mice per group. *p<0.05, **p<0.01, ***p<0.005, ****p<0.001. ns, no significant difference. Data of FIG. 3B-FIG. 3H were analyzed using ANOVA (with Dunnett's multiple comparisons test).

[3] = test system: spontaneous IgAN gddY (S-IgAN) mice; test: spontaneous IgAN in gddY mice (S-IgAN) model; type: in vivo
Experimental: (§2) Two complementary mouse models of IgAN—a passive IgAN (P-IgAN) and a spontaneous IgAN in gddY mice (S-IgAN) were used to examine therapeutic effects of LCC18 on renal conditions of IgAN. […] Eight-week-old female C57BL/6 mice were injected with IgA anti-PC intraperitoneally and PnC intravenously for 14 or 28 consecutive days. Treatment with LCC18 (daily dose of 10 mg/kg body weight) dissolved in polyethylene glycol 400 (PEG 400) (Sigma-Aldrich, St. Louis, MO, USA) via an intraperitoneal (IP) route (P-IgAN+LCC18), and another group of IgAN mice was administered vehicle only (PEG 400) as the disease control group (P-IgAN+Vehicle). Mice were killed at days 14 and 28. Age-matched C57BL/6 mice injected with saline (P-WT+Saline) were used as normal controls; (2) a spontaneous IgAN in gddY (S-IgAN) mice, featuring severe glomerular and tubulointerstitial lesions, characterized by mesangial proliferation, and mesangial matrix expansion. LCC18 (S-IgAN+LCC18) or vehicle (S-IgAN+Vehicle) was administered to mice daily beginning at 8 weeks of age and continuing throughout the present invention. The gddY mice were sacrificed at 32 weeks. Age-matched BALB/c mice served as normal controls (S-WT). All animal experiments were conducted with approval of the Institutional Animal Care and Use Committee of the National Defense Medical Center, Taipei, Taiwan, and were conducted in accordance with NIH Guidelines for the Care and Use of Laboratory Animals.
(§3) For the P-IgAN model, the mice received daily at day 7 after disease induction, either LCC18 (10 mg/kg body weight) (P-IgAN+LCC18) or vehicle (P-IgAN+Vehicle) via IP throughout the study. For the S-IgAN model, LCC18 (S-IgAN+LCC18) or vehicle (S-IgAN+Vehicle) was administered to the mice daily throughout the study via IP, beginning at 8 weeks of age. […] This beneficial effect began on day 21 after disease induction and increased until day 28 when mice were sacrificed (FIG. 1C).

[4] = test system: CD4+ T cells; test: OVA-specific T cell proliferation assay (BMDCs co-cultured with OT-II T cells, [3H]thymidine); type: cell-based; details: OT-II T cells pulsed with OVA peptide; FIG. 3B
Experimental: as §1

[5] = test system: passively induced IgAN (P-IgAN) mice; test: passively induced IgAN (P-IgAN) mouse model; type: in vivo, C57BL/6 mice
Experimental: as §2, §3

[6] = test system: ASLN mice; test: accelerated, severe lupus nephritis (ASLN) model; type: in vivo, NZB/WF1 mice
Experimental: To establish ASLN model mice, eight-week-old female NZB/WF1 mice (prior to autoantibody production) were given LPS (Sigma, MO, USA) (0.8 mg/kg body weight) twice a week by intraperitoneal injection. Seven days after the first injection of LPS, seven mice each received either LCC18 (10 mg/kg body weight) or vehicle (polyethylene glycol 400) (Sigma) daily via intraperitoneal injections. Another group of age-matched female NZB/WF1 mice were injected with saline and served as normal controls. All mice were sacrificed 5 weeks after induction of the disease. All animal experiments were performed in compliance with the NIH Guidelines for the Care and Use of Laboratory Animals with approval of the Institutional Animal Care and Use Committee of The National Defense Medical Center, Taipei, Taiwan.
Next, an ASLN model in NZB/W F1 mice, which mimics acute onset of severe LN in human, was validated potential therapeutic effects of LCC18 in the present invention. LN was induced in these mice by intermittent LPS injections to simulate SLE patients following bacterial or viral infections believed to act as environmental triggers. LCC18 was administered daily after the onset of the renal condition in ASLN mice (ASLN+LCC18 mice), while ASLN mice that received vehicle only (ASLN+Vehicle mice) were used as disease control mice.
Urine samples were collected for albuminuria assessment using the ratio of urine albumin/urine creatinine (Cr). Serum blood urea nitrogen (BUN) and Cr levels were determined.
On the other hand, renal tissues were fixed in formalin buffer and paraffin-embedded and stained with hematoxylin and eosin (H&E). Scoring of renal pathology was evaluated.
Levels of anti-dsDNA antibody (Alpha Diagnostic International, TX, USA) were measured using commercial ELISA kits.
Reactive oxygen species (ROS) levels in renal tissues were measured by a lucigenin-enhanced chemiluminescence assay.

[7] = test system: CKDs' subject; test: summary of effects in kidney and serum of the CKDs' subject; type: in vivo
Source text: In summary, the LCC18 attenuates glomerular cell proliferation about 15˜35%, attenuates sclerosis and fibrosis, attenuates crescent formation about 40˜90%, attenuates fibrinoid necrosis about 40˜90% in a kidney of the CKDs' subject.
Further, the LCC18 can regulate renal function and albuminuria, downregulate serum levels of blood urea nitrogen (serum levels of BUN) about 50˜60%, serum levels of creatinine (serum levels of Cr) about 30˜40% and serum levels of IgG anti-dsDNA about 60˜70% of the CKDs' subject.

[8] = in a kidney of the CKDs' subject

O=c1oc2ccc(-c3ccc(F)cc3F)cc2c(=O)n1-c1cccc(C(F)(F)F)c1 [LCC18, 6-(2,4-difluorophenyl)-3-(3-(trifluoromethyl)phenyl)-2H-benzo[e][1,3]oxazine-2,4(3H)-dione]
renal fibrotic changes (H&E TILs score, Masson's trichrome fibrotic area) ([1]; 10 mg/kg IP, vs Vehicle+UUO, FIG. 7A-7D): greatly improved | increased renal expression of Col-III, IHC ([1]; vs UUO+Vehicle, FIG. 8): inhibited | increased renal expression of p-Smad2/3, IHC ([1]; vs UUO+Vehicle, FIG. 8): inhibited | fluorescence intensity levels of CD11c+CD80+ cells (activation marker for DCs) [2]: Significantly decreased | serum levels of BUN ([3]; S-IgAN+LCC18 vs S-IgAN+Vehicle, daily IP from 8 weeks of age, FIG. 1D): benefited from treatment | serum levels of Cr ([3]; S-IgAN+LCC18 vs S-IgAN+Vehicle, daily IP from 8 weeks of age, FIG. 1E): benefited from treatment | increase in splenic number of CD4+CD44hiCD62Llo memory T cells ([3]; flow cytometry, FIG. 3G): inhibited | increase in splenic number of CD8+CD44hiCD62Llo-hi memory T cells ([3]; flow cytometry, FIG. 3H): inhibited | ROS levels in renal tissues ([3]; vs S-IgAN+Vehicle, FIG. 2B): Significantly reduced | T cell proliferation in splenocytes, [3H] thymidine uptake ([3]; vs S-IgAN+Vehicle, FIG. 3F): significantly decreased | urine levels of albumin (urine albumin/Cr ratio) ([3]; vs S-IgAN+Vehicle, beginning on week 24, continuing to week 32, FIG. 1F): therapeutic effect was also observed | CD4+ T cell proliferation induced by IgA ICs-stimulated BMDCs [4]: inhibited | serum levels of BUN ([5]; P-IgAN+LCC18 vs P-IgAN+Vehicle, 10 mg/kg daily IP from day 7, FIG. 1A): Significantly lower | serum levels of Cr ([5]; P-IgAN+LCC18 vs P-IgAN+Vehicle, 10 mg/kg daily IP from day 7, FIG. 1B): Significantly lower | increase in number of CD4+CD44hiCD62Llo memory T cells in the spleen ([5]; flow cytometry, FIG. 3D): inhibited | increase in number of CD8+CD44hiCD62Llo-hi memory T cells in the spleen ([5]; flow cytometry, FIG. 3E): inhibited | severity of renal lesions (glomerular cell proliferation, sclerosis in glomeruli), H&E ([5]; light microscopy, vs P-IgAN+Vehicle, FIG. 1G-1I): markedly reduced | ROS levels in renal tissues ([5]; vs P-IgAN+Vehicle, FIG. 2A): Significantly reduced | T cell proliferation in splenocytes, [3H] thymidine uptake ([5]; vs P-IgAN+Vehicle, FIG. 3C): significantly decreased | urine levels of albumin (urine albumin/Cr ratio) ([5]; vs P-IgAN+Vehicle, effect began on day 21 and increased until day 28, FIG. 1C): significantly decreased | elevated serum levels of BUN ([6]; ASLN+LCC18 vs ASLN+Vehicle, 10 mg/kg daily IP, FIG. 4A): significantly inhibited | elevated serum levels of Cr ([6]; ASLN+LCC18 vs ASLN+Vehicle, 10 mg/kg daily IP, FIG. 4B): significantly inhibited | serum anti-dsDNA levels ([6]; ELISA, vs ASLN+Vehicle, FIG. 4G): Greatly reduced | CD4+ T cells (CD4+CD44hiCD62Llo T memory cells) in splenocytes ([6]; flow cytometry, FIG. 5A): inhibited | CD8+ T cells (CD8+CD44hiCD62Llo-hi T memory cells) in splenocytes ([6]; flow cytometry, FIG. 5B): inhibited | Treg cell differentiation (CD4+CD25+Foxp3+) in splenocytes ([6]; flow cytometry, FIG. 5C): enhanced | renal levels of ROS ([6]; lucigenin-enhanced chemiluminescence, vs ASLN+Vehicle, FIG. 6): significantly reduced | albuminuria (urine albumin/urine Cr) ([6]; vs ASLN+Vehicle, FIG. 4C): greatly reduced | pathological changes including intrinsic cell proliferation and crescent formation, H&E scoring ([6]; vs ASLN+Vehicle, FIG. 4D-4F): significantly inhibited | downregulation of serum levels of IgG anti-dsDNA ([7]; CKDs' subject): 60˜70% | downregulation of serum levels of blood urea nitrogen (BUN) ([7]; CKDs' subject): 50˜60% | downregulation of serum levels of creatinine (Cr) ([7]; CKDs' subject): 30˜40% | attenuation of crescent formation [7, 8]: 40˜90% | attenuation of fibrinoid necrosis [7, 8]: 40˜90% | attenuation of glomerular cell proliferation [7, 8]: 15˜35% | sclerosis and fibrosis [7, 8]: attenuates
